Legend:
Type in all cases: in vivo
Sprague-Dawley rats [1] = assay: Disuse deconditioning (tail suspension, 14 days); conditions: 1 or 5 μg/kg IP twice daily
Procedure: Adult male Sprague-Dawley rats (355-365 g) were used in this study. Animals were housed individually in standard rat cages and were acclimated on a treadmill for 4 days. The next day, a baseline tail bleed was performed, followed by a maximal treadmill stress test the day after. The day following the stress test, the animals were divided into the appropriate treatment and control groups and the animals were suspended by their tails in suspension cages, which simulates weightlessness and, therefore, deconditions the animals. Another group of control animals was placed in standard rat cages with grated flooring similar to that utilized in the suspension cages. All animals were housed one per cage and supplied with food and water ad libitum. Body weights and food consumptions were measured daily. Animals received twice daily IP injections of 1 μg/kg or 5 μg/kg body weight of EX-2 (treated), or 1 ml/kg body weight of saline (control). On day 10, all animals were stress tested on the treadmill until they reached exhaustion. Data on maximum VO2 and running time were collected and compared to pre-suspension results. On day 14, all animals were sacrificed, and blood, tissues, and organs were collected for further analysis. All procedures and tests were performed blind to avoid researcher subjectivity. Statistical significance (p<0.05) between groups was evaluated by ANOVA with Student-Newman-Keuls test for multiple comparisons. All data are reported as the mean ± standard error (SE).
All of the animals were subjected to the stress tests, which measured exercise time and maximal VO2. As well, levels of the oxidative enzyme soleus citrate synthase and tibia bone density were measured.
Soleus citrate synthase was attenuated by 50%.

Balb/c mice [2] = assay: Lipopolysaccharide-induced lethality (IP dosing); conditions: 11 × 300 μg/mouse IP (3.3 mg total); 0.6 mg LPS
Procedure: These experiments were performed based on information reported by Rivier et al., Endocrinology 125:2800-2805 (1989), which is incorporated herein by reference. Adult female Balb/c mice were provided food and water ad libitum. Mice were injected IP every four hr for 40 hr with 30 to 300 μg EX-2, EX-3 or EX-4 in 0.2 ml saline (treated group) or with 0.2 ml saline, alone (control group) (10 mice per group). Immediately following the first injection, 0.6 mg LPS endotoxin in 0.2 ml saline was administered to each mouse. Following LPS injection, EX-2 or saline was administered to the treated mice or the control mice, respectively, every 4 hr for 36 hr.

TNF-α = assay: Reduction of LPS-induced TNF levels in mice (IP dosing, ELISA); conditions: 30 μg/mouse IP; LPS 5 mg/kg IP; vs untreated control mice
Procedure: Balb/c female mice weighing approximately 20 g were placed into two groups, a control group and a treated group. Five mg/kg of LPS in 0.9% saline was administered by intraperitoneal (IP) injection into the control mice. Mice in the treated group were first injected IP with 30 μg EX-2 or 150 μg EX-3 in saline, then, one mn after EX-2 or EX-3 was administered, the mice received LPS as described for the control group.
Blood samples were collected from the orbital sinus of treated and control mice at various times up to four hr after LPS was administered. The plasma was separated by centrifugation at 3000×g for 5 min, then diluted with four volumes of 1× phosphate buffer saline (pH 7.4) containing 1% bovine serum albumin. A 100 μl sample of serum was assayed by ELISA for TNF-α (Genzyme; Cambridge Mass.).
The mean (+/-SEM) TNF-α level in six mice from each group was determined and the percent reduction in TNF levels was calculated.

Balb/c mice [3] = assay: Arachidonic acid-induced ear swelling; conditions: 100 μg/mouse IP 30 min before AA; 60 min after AA
Procedure: Experiments were performed using female Balb/c mice weighing 18-23 grams. Saline or 100 μg EX-2 or EX-3 was administered IP, 30 min prior to topical application of arachidonic acid (AA). A 10 μl pipet was used to apply 10 μl AA solution (100 mg/ml ethanol; Calbiochem-Novabiochem; San Diego Calif.) to the inner and outer surfaces of the right ear of each mouse. Ten μl ethanol, alone, was applied to the inner and outer surface of the left ear of each mouse.
Ear thickness was measured with a hand-held spring loaded caliper immediately before and 60 min after AA application. Increase in ear thickness was calculated by subtracting the change observed in the control ear from the change observed in AA-treated ear. The value for each group (saline and control) is the average of the swelling observed in the individual mice in each group. The percent reduction of swelling is based on the swelling observed in the saline control group.

Sprague-Dawley rats [4] = assay: Renal ischemia-reperfusion injury; conditions: I/R + EX-2 (50 or 500 μg/kg iv, not specified)
Procedure: A. Ischemia-Reperfusion Injury: These experiments were performed to determine if a peptide which has cytokine restraining properties, EX-2, can ameliorate the reperfusion-induced vasoconstriction and reduction in glomerular filtration rate that results from clamping of the renal artery. As a comparison, the NSAID ketorolac was utilized in the same model.
Sprague-Dawley rats (250-300 g) were anesthetized with Inactin® (120 mg/kg). After deep anesthesia was assured, the rats were cannulated in the trachea with polyethylene (PE) tubing (PE 240), jugular vein, femoral artery, bladder (PE 50 for previous 3 cannulations), and left ureter (stretched PE 50). Once cannulation was completed, a 2 cm flank incision above the left kidney was performed and the renal pelvis and vascular bundle were exposed. […]
Just prior to clamping, EX-2 (50 or 500 μg/kg), ketorolac (KETO, 1 mg/kg), or vehicle was administered intravenously (iv) After 1 hr of clamping (ischemia), the clamp was gently removed with care taken to avoid damaging either the renal artery or nerves. […] After 60 min of reperfusion, glomerular filtration rate (GFR), renal plasma flow (RPF) and renal vascular resistance (RVR) were assessed in two 30 min collection periods. […] Contralateral renal function was utilized to determine the stability of the rat's renal function during the measured period.

Sprague-Dawley rats [5] = assay: Nephrotoxic serum glomerulonephritis, albuminuria; conditions: EX-2 100 μg/kg per injection 3 times per day; 24 hr albumin excretion
Procedure: C. Glomerulonephritis: Male Sprague-Dawley rats (weight 194-248 g) were immunized by subcutaneous injection of 1 mg normal rabbit IgG (Sigma Chemical Co.) in Freund's complete adjuvant (Sigma Chemical Co.). EX-2 was administered 3 times per day (100 μg/kg per injection) throughout the duration of the experiment. Seven days later, the rats were injected with 1.5 ml of nephrotoxic serum iv via dorsal penile vein. Urine, plasma, and serum were collected before injection of nephrotoxic serum at 4, 6, 24, 48, and 96 hr thereafter. […] Albuminuria was quantified by immunoelectrophoresis.

## Ac-Nle-Gln-His-(D)Phe-Arg-(D)Trp-Gly-NH2 [EX-2]
Sprague-Dawley rats [1]; day 14
  % Attenuation of suspension-induced decrease: Soleus Citrate Synthase: 50%
  % Attenuation of suspension-induced decrease: Tibia Bone Density: 50%
Sprague-Dawley rats [1]; treadmill day 10
  % Attenuation of suspension-induced decrease: Exercise Time: 44%
  % Attenuation of suspension-induced decrease: Maximal VO2: 80%
Balb/c mice [2]
  Inhibition of LPS-induced Lethality (increase in survival vs control): 83%
TNF-α
  Reduction in TNF levels: 50%
Balb/c mice [3]
  Reduction in arachidonic acid-induced Ear Swelling: 72%
Sprague-Dawley rats [4]; 1 hr clamp, after 60 min reperfusion, I/R + PBS 0.2 ± 0.1
  GFR (glomerular filtration rate): 0.5 ± 0.1 ml/mm
Sprague-Dawley rats [4]; I/R + PBS 0.8 ± 0.2
  RPF (renal plasma flow): 2.3 ± 0.3 ml/mm
Sprague-Dawley rats [5]
  % Reduction of induced increase in Albumin (mg/day), Glomerulonephritis: 62%
